In patent US12410124B2 (priority 2019, dated 2025):

Legend:
Format in all cases: in vivo
substantia nigra p-α-s = assay: Substantia nigra p-α-s protein expression in MPTP Parkinson's disease model mouse (immunofluorescence); conditions: percentage of mean intensity of blank control group, gavage 21 days after MPTP modeling
Method: (§1) Neurotoxins can be used to establish PD animal models. Currently, 1-methyl-4-phenyl-1,2,3,6-tetrahydropyridine (MPTP) is the sole synthetic toxin which is recognized to induce PD symptoms in human and non-human primates and in mice. Using MPTP subacute modeling method, C57BL/6J male mice were intraperitoneally injected with MPTP 30 mg/kg, once a day for 5 consecutive days. The experiment animals were divided into blank control group, MPTP model group, and compound treatment group. For the […] compound treatment group, the compound was administrated by gavage for 21 consecutive days after the completion of modeling; for the MPTP model group, the normal saline was administrated by gavage for 21 consecutive days after the completion of modeling; and for the blank control group, the normal saline was first intraperitoneally injected for 5 days, and then administrated by gavage for 21 days.
Alpha-synuclein is an “unfolded protein” in its natural state. It exists in a monomeric form, and participates in the physiological functions such as the release of neurotransmitters, the establishment of synaptic junctions, and the regulation of synaptic plasticity. Under pathological conditions, more than 90% of alpha-synuclein is phosphorylated at serine of position 129 and converted into phosphorylated alpha-synuclein (p-α-s), thereby forming Lewy bodies. The formation of Lewy bodies is one of the main pathological manifestations and pathological mechanisms for Parkinson's disease, and plays an important role in the formation and development of PD. The detection of the p-α-s expression in the midbrain and substantia nigra of PD model mice can evaluate the neuroprotective activity of the compound.
(§2) Half of experiment mice in each group were taken to separate the midbrain after perfusion and fixation. The tissue was trimmed, and the substantia nigra-striatum area was taken to prepare paraffin sections. The p-α-s immunofluorescence staining was performed in the brain sections of mice in each group. […] The experiment included blank control group, MPTP model group, positive control group (caffeic acid phenethyl ester, CAPE), prototype control group (styryl sulfone compounds 3B, 3C, 3D, and 3G, whose structures are shown as above), and target compound group.

substantia nigra TH = assay: Substantia nigra TH expression in MPTP Parkinson's disease model mouse (immunofluorescence); conditions: percentage of mean intensity of blank control group, gavage 21 days after MPTP modeling
Method: as §1
The main cause of PD lies in the pathological changes in the substantia nigra-striatum projection system of the brain and the progressive degeneration and loss of dopaminergic neurons. Tyrosine hydroxylase (TH) is the first enzyme in the biosynthesis of catecholamine neurotransmitters, as well as the first rate-limiting enzyme in the dopamine synthesis. It plays an important role in the synthesis and metabolism of the neurotransmitter DA. The TH in PD animal models and patients has a wide range of abnormal changes, from the gene expression to the enzyme protein content and enzyme activity. The detection of the TH expression in the midbrain and substantia nigra of PD model mice can be used to evaluate the neuroprotective activity of the compound.
as §2, with “TH” for “p-α-s”

midbrain pp38 = assay: Midbrain pp38 protein expression in MPTP Parkinson's disease model mouse (western-blotting); conditions: midbrain total protein, GAPDH internal reference, gavage 21 days after MPTP modeling
Method: as §1
The p38 mitogen-activated protein kinase (p38 MAPK) is expressed in both neurons and glial cells, and is the intersection point of neuron-glial cell network information regulations. The activation of p38 signaling pathway is an important initiator of neuronal degeneration, which continuously induces the apoptosis of dopaminergic neurons in multiple ways. It has become a research hotspot for the treatment of PD. Studies have shown that the protective mechanism of CAPE against the death of primary cultured cerebellar granule neurons induced by glutamate lies in inhibiting the activation of p38 phosphorylation and in turn inhibiting the activation of the caspase 3 apoptotic pathway to prevent neuronal apoptosis. Therefore, the MPTP-induced PD mouse model can be used to investigate the inhibitory effect of the target compounds on the activation of p38 phosphorylation on the overall animal level.
Half of experiment mice in each group were taken to extract the total midbrain protein, and the change in the midbrain phosphorylated p38 protein expression was determined by western-blotting using GAPDH as the internal reference. The experiment included blank control group, MPTP model group, positive control group (caffeic acid phenethyl ester, CAPE), prototype control group (styryl sulfone compounds 3B, 3C, 3D, and 3G, whose structures are shown as above), and target compound group.

midbrain CD11b = assay: Midbrain CD11b protein expression in MPTP Parkinson's disease model mouse (western-blotting); conditions: for Expression (CD11b/GAPDH): midbrain, MPTP Parkinson's disease model mouse, western-blotting
Method: as §1
Neuron-glial cell network homeostasis disorder is an important factor for the selective and progressive death of substantia nigra dopaminergic neurons in PD. In the neurotoxic effect of MPTP, the excessive activations of microglial cells and astrocytes produce a variety of inflammatory cytokines and reactive oxygen species (ROS). These inflammatory factors and ROS amplify their respective toxicities and mediate malignant feedback loop, causing a cascade inflammation response and aggravating the pathological process of PD. CD11b and GFAP are the marker proteins for activations of microglial cells and astrocytes, respectively. Therefore, the effect of the target compounds on the activations of the microglial cells and astrocytes in the substantia nigra, hippocampus, and midbrain areas of MPTP-induced PD mice can be investigated, to explore the mechanism of the anti-PD effect of the target compounds by inhibiting the neuroinflammation.
[…] The experiment included blank control group, MPTP model group, positive control group (caffeic acid phenethyl ester, CAPE), prototype control group (styryl sulfone compounds 3B, 3C, 3D), and 3G, whose structures are shown as above), and target compound group.

HO-1 = assay: Midbrain HO-1 expression in MPTP Parkinson's disease model mouse (western blot); conditions: for Expression (HO-1/GAPDH): midbrain, MPTP Parkinson's disease model mouse, western blot
Method: as §1
Oxidative stress is an important pathogenic mechanism of PD. Dopaminergic neurons are more sensitive to oxidative stress and are more susceptible to oxidative stress damage. Heme oxygenase (HO-1), a phase II enzyme, is also a well-known antioxidase. It plays an important protective role by catalyzing the conversion of free radicals into non-toxic products and increasing their water solubility to facilitate the elimination of free radicals, and maintain the redox balance in the body. It plays an important role in the process of protecting cells against oxidative stress damage. The activation of p38 protein phosphorylation has a negative regulatory effect on phase II enzymes. […] Using HO-1 as an indicator, the inhibitory effect of the target compounds on MPTP-induced oxidative stress damage in PD mice can be investigated.
HO-1 is expressed in astrocytes, microglial cells, and neurons. The total proteins of the midbrain tissue of mice in each experiment group were extracted, to determine the expression of phase II enzyme HO-1 in the midbrain of mice by western blot using GAPDH as the internal reference. The experiment included blank control group, MPTP model group, positive control group (caffeic acid phenethyl ester, CAPE), prototype control group (styryl sulfone compounds 3B, 3C, 3D, and 3G, whose structures are shown as above), and target compound group.

| Compound | Expression (Immunofluorescence intensity %) (substantia nigra p-α-s) | Expression (Immunofluorescence intensity %) (substantia nigra TH) | Expression (pp38/GAPDH) (midbrain pp38) | Expression (CD11b/GAPDH) (midbrain CD11b) | Expression (HO-1/GAPDH) (HO-1) | midbrain CD11b protein expression compared with the styryl sulfone prototype compounds (midbrain CD11b) | midbrain HO-1 expression compared with the styryl sulfone prototype compounds (HO-1) |
| --- | --- | --- | --- | --- | --- | --- | --- |
| CC(C)(C)c1ccc(CS(=O)(=O)/C=C/c2ccc(O)c(O)c2)cc1 [Compound 3G, (E)-4-{2-[(4-t-butylphenyl)mesyl]ethenyl}benzene-1,2-diol, reference compound] | 203.66 ± 8.37% | 76.08 ± 7.08% | 0.69 ± 0.22 | 0.67 ± 0.12 | 0.51 ± 0.07 | – | – |
| CCN(CC)C(=O)Oc1ccc(/C=C/S(=O)(=O)CCCc2ccccc2)cc1OC(=O)N(CC)CC [Compound C1-1, (E)-4-[2-(3-phenylpropylsulfonyl)ethenyl]-1,2-phenylenebis(diethylcarbamate)] | 123.59 ± 8.25% | 96.58 ± 6.15% | 0.63 ± 0.06 | 1.11 ± 0.08 | 0.88 ± 0.09 | equivalent or lower | significantly higher |
| O=C(/C=C/c1ccc(O)c(O)c1)OCCc1ccccc1 [Positive control group, caffeic acid phenethyl ester, reference compound] | 202.07 ± 8.34% | 79.21 ± 6.59% | 0.58 ± 0.12 | 1.28 ± 0.10 | 0.52 ± 0.07 | – | – |
| COc1cc(/C=C/S(=O)(=O)Cc2cc(OC)c(OC)c(OC)c2)ccc1OC(=O)N(c1ccccc1)c1ccccc1 [Compound K3-3, (E)-2-methoxy-4-{2-[(3,4,5-trimethoxyphenyl)mesyl]ethenyl}-phenyl-N,N-diphenylcarbamate] | 180.11 ± 13.51% | 98.53 ± 3.08% | 0.55 ± 0.08 | 1.15 ± 0.07 | 0.69 ± 0.07 | – | – |
| CCN(CC)C(=O)Oc1ccc(/C=C/S(=O)(=O)Cc2ccc(Cl)cc2)cc1OC(=O)N(CC)CC [Compound D1-1, (E)-4-{2-[(4-chlorophenyl)mesyl]ethenyl}-1,2-phenylenebis(diethylcarbamate)] | 42.52 ± 5.43% | 99.19 ± 3.67% | 0.50 ± 0.13 | 0.33 ± 0.05 | 1.63 ± 0.12 | equivalent or lower | significantly higher |
| Cc1ccc(N2CCN(C(=O)Oc3ccc(/C=C/S(=O)(=O)CCCC(c4ccc(OC(=O)CN(C)C)cc4)N(C)C)cc3OC(=O)N(C)c3ccccc3)CC2)cc1 (centres unmarked) [Compound P1-1, (E)-4-{2-[4-(dimethylamino)-4-(4-(N,N-dimethylglycyloxy)phenyl)butylsulfonyl]ethenyl}-2-(N-methyl-N-phenylcarbamoyloxy)phenyl-4-(p-methylphenyl)piperazine-1-carboxylate] | 182.99 ± 12.70% | 88.13 ± 3.43% | 0.50 ± 0.09 | 0.70 ± 0.06 | 1.17 ± 0.05 | – | – |
| CCN(CC)C(=O)Oc1ccc(/C=C/S(=O)(=O)Cc2ccc(C(F)(F)F)cc2)cc1OC(=O)N(CC)CC [Compound B1-1, (E)-4-{2-[(4-trifluoromethylphenyl)mesyl]ethenyl}-1,2-phenylenebis(diethylcarbamate)] | 82.54 ± 9.34% | 95.86 ± 4.43% | 0.37 ± 0.12 | 0.41 ± 0.05 | 0.90 ± 0.10 | equivalent or lower | significantly higher |
| COc1ccc(CC(=O)Oc2ccc(/C(C)=C/S(=O)(=O)/C=C/c3ccc(OC(=O)N(C)C)c(O[Si](C)(C)CCl)c3)cc2)cc1 [Compound P1-7, 4-{(E)-1-[(E)-3-(chloromethyldimethylsiloxy)-4-(N,N-dimethylcarbamoyloxy)styrylsulfonyl]prop-1-en-2-yl}phenyl-2-(4-methoxyphenyl) acetate] | 61.28 ± 5.36% | 88.07 ± 5.03% | 0.40 ± 0.04 | 0.39 ± 0.03 | 0.71 ± 0.09 | – | – |
| (E)-2-[(methylamino)methoxy]-4-{2-[1-(4′-nitro-[1,1′-biphenyl]-4-yl)ethylsulfonyl]ethenyl}phenylcarbamate [Compound M1-3] | 79.17 ± 5.10% | 84.07 ± 3.19% | 0.42 ± 0.06 | 0.84 ± 0.06 | 0.80 ± 0.09 | – | – |
| O=S(=O)(/C=C/c1ccc(O)c(O)c1)Cc1ccc(C(F)(F)F)cc1 [Compound 3B, (E)-4-{2-[(4-trifluoromethylphenyl)mesyl]ethenyl}benzene-1,2-diol, reference compound] | 236.55 ± 13.78% | 83.18 ± 5.87% | 1.18 ± 0.08 | 1.31 ± 0.10 | 0.56 ± 0.03 | – | – |
